In patent US9309283B2, “Prodrugs of peptide epoxy ketone protease inhibitors” (Onyx Therapeutics, Inc., priority 2012, dated 2016):

Experiments:
c20s = c20s (Homo sapiens, UniProt P20618+P28074); assay: Purified PI IC50, c20s; format: biochemical
i20s = i20s (Homo sapiens, UniProt P20618+P28062); assay: Purified PI IC50, i20s; format: biochemical
[1] = Conversion to drug in human plasma (%) over time; format: in vitro ADME
[2] = Buffer conversion rates of prodrugs to Compound B; format: physicochemical
[3] = Conversion of prodrugs by Human Liver S9; format: in vitro ADME
[4] = Pharmacokinetic comparison of Compound A and prodrug in mouse; format: in vivo; settings: dose 5 mg/kg

COCCOCCOCCOCCC(=O)N/N=C(/[C@H](CC(C)C)NC(=O)[C@H](Cc1ccccc1)NC(=O)[C@H](CC(C)C)NC(=O)[C@H](CCc1ccccc1)NC(=O)CN1CCOCC1)[C@@]1(C)CO1
Purified PI IC50 Slope c20s (c20s; Table G, * = did not converge): inactive

CO/N=C(/[C@H](CC(C)C)NC(=O)[C@H](Cc1ccccc1)NC(=O)[C@H](CC(C)C)NC(=O)[C@H](CCc1ccccc1)NC(=O)CN1CCOCC1)[C@@]1(C)CO1
Purified PI IC50 Slope i20s (i20s; Table G, * = did not converge): inactive

CC(C)C[C@H](NC(=O)[C@H](CCc1ccccc1)NC(=O)CN1CCOCC1)C(=O)N[C@@H](Cc1ccccc1)C(=O)N[C@@H](CC(C)C)/C(=N/OCC(=O)O)[C@@]1(C)CO1
Purified PI IC50 Slope c20s (c20s; Table G, * = did not converge): inactive | Purified PI IC50 Slope i20s (i20s; Table G, * = did not converge): inactive

CC(C)C[C@H](NC(=O)[C@H](CCc1ccccc1)NC(=O)CN1CCOCC1)C(=O)N[C@@H](Cc1ccccc1)C(=O)N[C@@H](CC(C)C)C(=O)[C@](C)(O)COC(=O)c1c(Cl)cccc1Cl
Purified PI IC50 Slope c20s (c20s; Table G, * = did not converge): inactive

COC[C@H](NC(=O)c1cnc(C)s1)C(=O)N[C@@H](COC)C(=O)N[C@@H](Cc1ccccc1)/C(=N/OC)[C@@]1(C)CO1
Purified PI IC50 Slope c20s (c20s; Table H): inactive | Purified PI IC50 Slope i20s (i20s; Table H): inactive | Purified PI IC50 60 minute point i20s (i20s; Table H): inactive

COC[C@H](NC(=O)c1cnc(C)s1)C(=O)N[C@@H](COC)C(=O)N[C@@H](Cc1ccccc1)C(=O)[C@](C)(O)COC(C)=O
Purified PI IC50 Slope c20s (c20s; Table H): inactive | Purified PI IC50 60 minute point c20s (c20s; Table H): inactive | Purified PI IC50 Slope i20s (i20s; Table H): inactive | Purified PI IC50 60 minute point i20s (i20s; Table H): inactive

COC[C@H](NC(=O)c1cnc(C)s1)C(=O)N[C@@H](COC)C(=O)N[C@@H](Cc1ccccc1)C(=O)[C@](C)(O)COC(=O)c1c(Cl)cccc1Cl
Purified PI IC50 Slope c20s (c20s; Table H): inactive | Purified PI IC50 60 minute point c20s (c20s; Table H): inactive | Purified PI IC50 Slope i20s (i20s; Table H): inactive | Purified PI IC50 60 minute point i20s (i20s; Table H): inactive

COC[C@H](NC(=O)c1cnc(C)s1)C(=O)N[C@@H](COC)C(=O)N[C@@H](Cc1ccccc1)C(=O)[C@](C)(O)COP(=O)(c1ccccc1)c1ccccc1
Purified PI IC50 Slope c20s (c20s; Table H): inactive | Purified PI IC50 60 minute point c20s (c20s; Table H): inactive | Purified PI IC50 Slope i20s (i20s; Table H): inactive | Purified PI IC50 60 minute point i20s (i20s; Table H): inactive

COCCOCCOCCOCCOCCOCCOCCOCCn1cc(CNC(=O)c2cccc(S(=O)(=O)OCC(C)(O)C(=O)[C@H](CC(C)C)NC(=O)[C@H](Cc3ccccc3)NC(=O)[C@H](CC(C)C)NC(=O)[C@H](CCc3ccccc3)NC(=O)CN3CCOCC3)c2)nn1 (stereo partly drawn)
Conversion to drug in Human Plasma ([1]; 2 min): 7% | Conversion to drug in Human Plasma ([1]; 30 min): 63% | Conversion to drug in Human Plasma ([1]; 1 hr): 100% | Conversion to drug in Human Plasma ([1]; 2 hr): 95% | Conversion to drug in Human Plasma ([1]; 4 hr): 80%

COCCOCCOCCOCCOCCOCCOCCOCCn1cc(COCCCS(=O)(=O)OCC(C)(O)C(=O)[C@H](CC(C)C)NC(=O)[C@H](Cc2ccccc2)NC(=O)[C@H](CC(C)C)NC(=O)[C@H](CCc2ccccc2)NC(=O)CN2CCOCC2)nn1 (stereo partly drawn)
Conversion to drug in Human Plasma ([1]; 2 min): 2% | Conversion to drug in Human Plasma ([1]; 30 min): 18% | Conversion to drug in Human Plasma ([1]; 1 hr): 58% | Conversion to drug in Human Plasma ([1]; 2 hr): 90% | Conversion to drug in Human Plasma ([1]; 4 hr): 80%

COC[C@H](NC(=O)c1cnc(C)s1)C(=O)N[C@@H](COC)C(=O)N[C@@H](Cc1ccccc1)C(=O)[C@](C)(O)CI [20-1]
Buffer pH = 7.4 % Conversion @ 1 hour [2]: 24%

COC[C@H](NC(=O)c1cnc(C)s1)C(=O)N[C@@H](COC)C(=O)N[C@@H](Cc1ccccc1)C(=O)[C@](C)(O)CCl [20-2]
Buffer pH = 7.4 % Conversion @ 1 hour [2]: 0%

COC[C@H](NC(=O)c1cnc(C)s1)C(=O)N[C@@H](COC)C(=O)N[C@@H](Cc1ccccc1)C(=O)[C@](C)(O)CBr [20-3]
Buffer pH = 7.4 % Conversion @ 1 hour [2]: 23%

COC[C@H](NC(=O)c1cnc(C)s1)C(=O)N[C@@H](COC)C(=O)N[C@@H](Cc1ccccc1)C(=O)[C@](C)(O)COS(=O)(=O)CC(F)(F)F [20-4]
Buffer pH = 7.4 % Conversion @ 1 hour [2]: 21.2%

COC[C@H](NC(=O)c1cnc(C)s1)C(=O)N[C@@H](COC)C(=O)N[C@@H](Cc1ccccc1)C(=O)[C@](C)(O)COS(=O)(=O)c1ccc(F)c(F)c1 [20-5]
Buffer pH = 7.4 % Conversion @ 1 hour [2]: 13.2%

COC[C@H](NC(=O)c1cnc(C)s1)C(=O)N[C@@H](COC)C(=O)N[C@@H](Cc1ccccc1)C(=O)[C@](C)(O)COS(=O)(=O)CC(F)F [20-6]
Buffer pH = 7.4 % Conversion @ 1 hour [2]: 5.7%

CCCCS(=O)(=O)OC[C@@](C)(O)C(=O)[C@H](Cc1ccccc1)NC(=O)[C@H](COC)NC(=O)[C@H](COC)NC(=O)c1cnc(C)s1 [20-7]
Buffer pH = 7.4 % Conversion @ 1 hour [2]: 4.2%

CCCCCCCCS(=O)(=O)OC[C@@](C)(O)C(=O)[C@H](Cc1ccccc1)NC(=O)[C@H](COC)NC(=O)[C@H](COC)NC(=O)c1cnc(C)s1 [20-8]
Buffer pH = 7.4 % Conversion @ 1 hour [2]: 10.8%

COC[C@H](NC(=O)c1cnc(C)s1)C(=O)N[C@@H](COC)C(=O)N[C@@H](Cc1ccccc1)C(=O)[C@@](C)(CI)OC(=O)CCCCSC(C)=O [20-10]
Human Liver S9 % Conversion @ 1 hour [3]: 3%

COC[C@H](NC(=O)c1cnc(C)s1)C(=O)N[C@@H](COC)C(=O)N[C@@H](Cc1ccccc1)C(=O)[C@@](C)(CI)OC(=O)CCCOC(C)=O [20-13]
Human Liver S9 % Conversion @ 1 hour [3]: 11%

COC[C@H](NC(=O)c1cnc(C)s1)C(=O)N[C@@H](COC)C(=O)N[C@@H](Cc1ccccc1)C(=O)[C@@](C)(CI)OC(=O)OCc1oc(=O)oc1C [20-15]
Human Liver S9 % Conversion @ 1 hour [3]: 30%

CCOC(=O)C(=O)O[C@](C)(CI)C(=O)[C@H](Cc1ccccc1)NC(=O)[C@H](COC)NC(=O)[C@H](COC)NC(=O)c1cnc(C)s1 [20-16]
Human Liver S9 % Conversion @ 1 hour [3]: 24%

CCOC(=O)CCC(=O)O[C@](C)(CI)C(=O)[C@H](Cc1ccccc1)NC(=O)[C@H](COC)NC(=O)[C@H](COC)NC(=O)c1cnc(C)s1 [20-17]
Human Liver S9 % Conversion @ 1 hour [3]: 1%

COC[C@H](NC(=O)c1cnc(C)s1)C(=O)N[C@@H](COC)C(=O)N[C@@H](Cc1ccccc1)C(=O)[C@@](C)(CI)OC(=O)COc1ccccc1 [20-19]
Human Liver S9 % Conversion @ 1 hour [3]: 7%

COC[C@H](NC(=O)c1cnc(C)s1)C(=O)N[C@@H](COC)C(=O)N[C@@H](Cc1ccccc1)C(=O)[C@@](C)(CI)OC(=O)OCc1ccc(OC(C)=O)cc1 [20-22]
Human Liver S9 % Conversion @ 1 hour [3]: 28%

COC[C@H](NC(=O)c1cnc(C)s1)C(=O)N[C@@H](COC)C(=O)N[C@@H](Cc1ccccc1)C(=O)[C@@](C)(CI)OC(=O)CCl [20-23]
Human Liver S9 % Conversion @ 1 hour [3]: 22%

COC[C@H](NC(=O)c1cnc(C)s1)C(=O)N[C@@H](COC)C(=O)N[C@@H](Cc1ccccc1)C(=O)[C@@](C)(CI)OC=O [20-24]
Human Liver S9 % Conversion @ 1 hour [3]: 29%

CCOC(=O)O[C@](C)(CI)C(=O)[C@H](Cc1ccccc1)NC(=O)[C@H](COC)NC(=O)[C@H](COC)NC(=O)c1cnc(C)s1 [20-25]
Human Liver S9 % Conversion @ 1 hour [3]: 14%

COC[C@H](NC(=O)c1cnc(C)s1)C(=O)N[C@@H](COC)C(=O)N[C@@H](Cc1ccccc1)C(=O)[C@@](C)(CI)OC(=O)Oc1ccccc1 [20-26]
Human Liver S9 % Conversion @ 1 hour [3]: 32%

CC(C)C[C@H](NC(=O)[C@H](CCc1ccccc1)NC(=O)CN1CCOCC1)C(=O)N[C@@H](Cc1ccccc1)C(=O)N[C@@H](CC(C)C)C(=O)[C@@]1(C)CO1 [Cmpd A, (S)-4-methyl-N—((S)-1-(((S)-4-methyl-1-((R)-2-methyloxiran-2-yl)-1-oxopentan-2-yl)amino)-1-oxo-3-phenylpropan-2-yl)-2-((S)-2-(2-morpholinoacetamido)-4-phenylbutanamido)pentanamide]
[Cmpd A] ([4]; time 1 hr): 0.008 µM | [Cmpd A] ([4]; time 4 hr): BLOQ | [Cmpd A] ([4]; time 6 hr): BLOQ | [Cmpd A] ([4]; time 24 hr): BLOQ

COC[C@H](NC(=O)c1cnc(C)s1)C(=O)N[C@@H](COC)C(=O)N[C@@H](Cc1ccccc1)C(=O)[C@](C)(O)COS(=O)(=O)c1ccc(C)cc1 [compound 21]
Buffer pH = 7.4 % Conversion @ 1 hour [2]: 20.3%

COC[C@H](NC(=O)c1cnc(C)s1)C(=O)N[C@@H](COC)C(=O)N[C@@H](Cc1ccccc1)C(=O)[C@](C)(O)COS(=O)(=O)C1CCOCC1 [compound 22]
Buffer pH = 7.4 % Conversion @ 1 hour [2]: 9.8%

COC[C@H](NC(=O)c1cnc(C)s1)C(=O)N[C@@H](COC)C(=O)N[C@@H](Cc1ccccc1)C(=O)[C@](C)(O)COS(=O)(=O)Cc1ccccc1 [compound 23]
Buffer pH = 7.4 % Conversion @ 1 hour [2]: 9.6%

COC[C@H](NC(=O)c1cnc(C)s1)C(=O)N[C@@H](COC)C(=O)N[C@@H](Cc1ccccc1)C(=O)[C@](C)(O)COS(=O)(=O)Cc1ccccc1 [drawing 371]
Purified PI IC50 Slope i20s (i20s; Table H): inactive
